Laboratory results from patent US9814865B2, “Coated medical device” (Cook Medical Technologies LLC, priority 2000, dated 2017).

Assay: physical adhesion test simulating introduction and deployment of paclitaxel-coated stents
Type: physicochemical
Settings: passed through water-filled guiding catheter, balloon-expanded, measured by spectrometry
Text: More particularly, the adhesion of paclitaxel to two types of stainless steel, grit abraded stents was compared to its adhesion to stents of those types whose surfaces had instead been plasma treated prior to the direct deposition of paclitaxel thereon (control stents). The coated stents of both types, that is, medical devices 10 of the present invention and control stents, were then subjected to a physical adhesion test which simulated the rate at which paclitaxel would be delivered during introduction and deployment of the stents in clinical use. The adhesion test involved passing each stent through a water-filled guiding catheter of appropriate diameter and inflating the balloon catheter to expand each stent to its intended diameter. The stents are already mounted before coating. The amount of paclitaxel remaining on each stent was then measured by spectrometry and compared to the amount of paclitaxel initially posited on each stent. Stents having surfaces 16 roughened or textured by abrasion with different abrasive grits 24 retained 84.1±10.2% of the paclitaxel originally applied, while stents having plasma treated surfaces retained only 44.3±8.7% of the paclitaxel originally applied (p<0.0001).

## CC(=O)O[C@H]1C(=O)[C@@]2(C)[C@H]([C@H](OC(=O)c3ccccc3)[C@]3(O)C[C@H](OC(=O)[C@H](O)[C@@H](NC(=O)c4ccccc4)c4ccccc4)C(C)=C1C3(C)C)[C@]1(OC(C)=O)CO[C@@H]1C[C@@H]2O [paclitaxel]
Stainless steel control stents with plasma treated surfaces, p<0.0001 vs abraded
  paclitaxel originally applied retained on stent after adhesion test: 44.3±8.7%
Stainless steel stents, surfaces roughened or textured by abrasion with different abrasive grits
  paclitaxel originally applied retained on stent after adhesion test: 84.1±10.2%
